Several values for one entry are separate records, joined by “and”; a condition that tells them apart may be missing. Equal values may be shown once. Entries after “also recorded” stand apart in the source; their conditions may differ.
Legend:
[1] = test system: M2e; set-up: species or system BALB/c mice; settings: mouse, in vivo, sc
[2] = test system: M2e; set-up: species or system BALB/c mice; settings: mouse, in vivo
[3] = test system: M2e; set-up: species or system BALB/c mice; settings: mouse, in vivo; remark: listed apart in the source
[4] = test system: Influenza virus (A/PR8/8/34 strain, H1N1); format: in vivo, BALB/c mice; settings: mouse, in vivo

Row | Sequence | anti-M2e antibody titer, comparison in words [1] | also measured
1 | SLLTEVETPIRNECWCGCRCNCDSSD [M2eC151621] | antibody titer comparable to M2e | 
2 | SLLTEVETPIRNEWCGCRCNCDCSCSCD [M2eC1621222324] | higher than that of M2eC162122 | 
3 | SLLTEVETPIRNEWCGCRCNCDCSCSD [M2eC16212223] | higher than that of M2eC162122 | 
4 | SLLTEVETPIRNEWCGCRCNCDCSSD [M2eC162122] | higher antibody titer than that of M2e | 
5 | SLLTEVETPIRNEWCGCRCNCDSSD [M2eC1621] | increased anti-M2e antibody titer than M2eC21 | 
6 | SLLTEVETPIRNEWGCRCNCCCDSSD [M2eC212121] | induced a high anti-M2e antibody titer | 
7 | SLLTEVETPIRNEWGCRCNCDCSCSCD [M2eC21222324] | higher than that of M2eC212223 | 
8 | SLLTEVETPIRNEWGCRCNCDCSCSD [M2eC212223] | higher antibody titer than that of M2e | anti-M2e antibody titer just before challenge [2]: could induce a high anti-M2e antibody titer
9 | SLLTEVETPIRNEWGCRCNCDCSSD [M2eC2122] | increased anti-M2e antibody titer than M2eC21 | 
10 | SLLTEVETPIRNEWGCRCNCDSCSD [M2eC2123] | increased anti-M2e antibody titer than M2eC21 | 
11 | SLLTEVETPTRSEWECRCSCDCSCSD [swM2eC212223] |  | anti-M2e antibody titer immediately before challenge [3]: the highest; also recorded: high anti-M2e antibody titer; Survival rate [4]: 9/9 and 7/8

— patent US8883165B2, “Modified peptide vaccine derived from influenza M2” (The Chemo-Sero-Therapeutic Research Institute, priority 2009, dated 2014)
